Here are results for one compound from paper PMC9405973, “Altered Conformational Landscape upon Sensing Guanine Nucleotides in a Disease Mutant of Elongation Factor-like 1 (EFL1) GTPase” (Biomolecules, 2022).

For orientation: Kd means the free concentration of one partner at which half of the binding sites on the other are occupied at equilibrium, for simple one-to-one binding. The low end stands for higher affinity, the high end for lower affinity.

Where “and” joins values, the source holds several entries; their conditions need not be identical. Equal values may be shown once.

The target of this test is T1, Efl1 R1086Q P151L (Saccharomyces cerevisiae, UniProt P53893, P151L/R1086Q).
T1 construct: made in house; host or cells: Saccharomyces cerevisiae
T1 sequence (P53893 whole entry P151L/R1086Q): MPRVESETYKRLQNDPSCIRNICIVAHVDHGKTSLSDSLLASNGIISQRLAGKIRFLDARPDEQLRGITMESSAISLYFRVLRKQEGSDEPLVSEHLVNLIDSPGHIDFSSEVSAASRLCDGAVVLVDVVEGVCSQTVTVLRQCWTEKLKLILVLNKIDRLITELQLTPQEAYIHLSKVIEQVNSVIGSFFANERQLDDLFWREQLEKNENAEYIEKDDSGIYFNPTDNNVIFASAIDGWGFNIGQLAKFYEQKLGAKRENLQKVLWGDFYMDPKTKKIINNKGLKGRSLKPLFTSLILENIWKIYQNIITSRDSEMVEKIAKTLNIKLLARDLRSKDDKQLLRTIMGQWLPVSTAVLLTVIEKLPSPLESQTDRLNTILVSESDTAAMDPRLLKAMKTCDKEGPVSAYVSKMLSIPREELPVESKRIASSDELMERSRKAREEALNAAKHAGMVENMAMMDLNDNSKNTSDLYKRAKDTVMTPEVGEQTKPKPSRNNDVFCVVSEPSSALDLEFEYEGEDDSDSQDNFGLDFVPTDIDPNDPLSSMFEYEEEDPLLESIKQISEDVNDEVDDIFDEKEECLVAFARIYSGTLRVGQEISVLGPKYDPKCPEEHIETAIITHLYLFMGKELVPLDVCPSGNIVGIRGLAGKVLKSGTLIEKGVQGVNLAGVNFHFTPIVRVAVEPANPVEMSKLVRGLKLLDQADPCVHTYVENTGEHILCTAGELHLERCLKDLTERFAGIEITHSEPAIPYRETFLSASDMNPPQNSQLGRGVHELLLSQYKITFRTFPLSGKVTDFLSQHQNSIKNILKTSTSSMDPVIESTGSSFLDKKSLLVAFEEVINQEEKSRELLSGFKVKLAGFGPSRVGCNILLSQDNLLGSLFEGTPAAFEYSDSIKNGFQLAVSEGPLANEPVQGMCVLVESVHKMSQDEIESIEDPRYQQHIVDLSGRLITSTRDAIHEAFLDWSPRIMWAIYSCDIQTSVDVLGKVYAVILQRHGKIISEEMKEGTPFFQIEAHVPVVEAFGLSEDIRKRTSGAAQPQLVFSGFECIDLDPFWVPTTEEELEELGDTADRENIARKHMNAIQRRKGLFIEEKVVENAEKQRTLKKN
In words: ITC: binding of GTP to double mutant Efl1 R1086Q P151L. The note with it: +Mg^2+. On the technique in general: ITC needs no label: the signal is the heat of the interaction.

As for `Nc1nc2c(ncn2[C@@H]2O[C@H](COP(=O)(O)OP(=O)(O)OP(=O)(O)O)[C@@H](O)[C@H]2O)c(=O)[nH]1` [GTP], under “25 °C”, the “-TΔSb” value was -4.8 kcal/mol, the ΔGb was -6.5 kcal/mol, the ΔHb is -1.7 ± 0.1 kcal/mol and the Kd was determined as 18 ± 3 µM. Also, under “30 °C”, the “-TΔSb” value is -4.1 kcal/mol; the “Nconfres (number of residues changing conformation, absolute value)” value was found to be 19; the “Nconfrotb (number of routable bonds changing conformation, absolute value)” value was determined as 19; the ΔCpconf is recorded as −195 cal mol^−1 K^−1. Under “30 °C”, the ΔCprb is −25 cal mol^−1 K^−1, the ΔGb was -6.6 kcal/mol, the ΔHb was -2.5 ± 0.1 kcal/mol and the ΔSb is on record as 13 cal mol^−1 K^−1. Besides, under “30 °C”, the ΔSconf is −31 cal mol^−1 K^−1, the ΔSsolv worked out at 53 cal mol^−1 K^−1, the “−ΔASAconf” value is reported as 875 Å^2 and the Kd turned out to be 17 ± 2 µM. Further, for the setting “35 °C”, the “-TΔSb” value is -2.8 kcal/mol; the ΔGb was -6.7 kcal/mol; the ΔHb is -3.9 ± 0.1 kcal/mol; the affinity, expressed as Kd, was 18 ± 2 µM. Also, the ΔCpb (from ΔHb at 25–35 °C) was −220 ± 35 cal mol^−1 K^−1 and −220 cal mol^−1 K^−1.
